Assay results taken from patent US5889026A, “4-hydroxy-piperodine derivatives” (Hoffmann-La Roche Inc., priority 1996, dated 1999).
Where a name gives a salt, the structure may show the parent alone. Read-outs that look alike come from different tables or passages of the source.

Assays:
[1] = target: T1, 3H-Ro 25-6981 binding (NMDA receptor) (Rattus norvegicus, UniProt P35439+Q00960); assay: 3H-Ro 25-6981 binding; details: rat brain membranes (minus cerebellum and medulla oblongata); 5 nM 3H-Ro 25-6981; 2 hours at 4° C., pH 7.4
T1 construct: NR1 splice forms mixed
T1 sequence (Q00960 27-1482, other chains not shown): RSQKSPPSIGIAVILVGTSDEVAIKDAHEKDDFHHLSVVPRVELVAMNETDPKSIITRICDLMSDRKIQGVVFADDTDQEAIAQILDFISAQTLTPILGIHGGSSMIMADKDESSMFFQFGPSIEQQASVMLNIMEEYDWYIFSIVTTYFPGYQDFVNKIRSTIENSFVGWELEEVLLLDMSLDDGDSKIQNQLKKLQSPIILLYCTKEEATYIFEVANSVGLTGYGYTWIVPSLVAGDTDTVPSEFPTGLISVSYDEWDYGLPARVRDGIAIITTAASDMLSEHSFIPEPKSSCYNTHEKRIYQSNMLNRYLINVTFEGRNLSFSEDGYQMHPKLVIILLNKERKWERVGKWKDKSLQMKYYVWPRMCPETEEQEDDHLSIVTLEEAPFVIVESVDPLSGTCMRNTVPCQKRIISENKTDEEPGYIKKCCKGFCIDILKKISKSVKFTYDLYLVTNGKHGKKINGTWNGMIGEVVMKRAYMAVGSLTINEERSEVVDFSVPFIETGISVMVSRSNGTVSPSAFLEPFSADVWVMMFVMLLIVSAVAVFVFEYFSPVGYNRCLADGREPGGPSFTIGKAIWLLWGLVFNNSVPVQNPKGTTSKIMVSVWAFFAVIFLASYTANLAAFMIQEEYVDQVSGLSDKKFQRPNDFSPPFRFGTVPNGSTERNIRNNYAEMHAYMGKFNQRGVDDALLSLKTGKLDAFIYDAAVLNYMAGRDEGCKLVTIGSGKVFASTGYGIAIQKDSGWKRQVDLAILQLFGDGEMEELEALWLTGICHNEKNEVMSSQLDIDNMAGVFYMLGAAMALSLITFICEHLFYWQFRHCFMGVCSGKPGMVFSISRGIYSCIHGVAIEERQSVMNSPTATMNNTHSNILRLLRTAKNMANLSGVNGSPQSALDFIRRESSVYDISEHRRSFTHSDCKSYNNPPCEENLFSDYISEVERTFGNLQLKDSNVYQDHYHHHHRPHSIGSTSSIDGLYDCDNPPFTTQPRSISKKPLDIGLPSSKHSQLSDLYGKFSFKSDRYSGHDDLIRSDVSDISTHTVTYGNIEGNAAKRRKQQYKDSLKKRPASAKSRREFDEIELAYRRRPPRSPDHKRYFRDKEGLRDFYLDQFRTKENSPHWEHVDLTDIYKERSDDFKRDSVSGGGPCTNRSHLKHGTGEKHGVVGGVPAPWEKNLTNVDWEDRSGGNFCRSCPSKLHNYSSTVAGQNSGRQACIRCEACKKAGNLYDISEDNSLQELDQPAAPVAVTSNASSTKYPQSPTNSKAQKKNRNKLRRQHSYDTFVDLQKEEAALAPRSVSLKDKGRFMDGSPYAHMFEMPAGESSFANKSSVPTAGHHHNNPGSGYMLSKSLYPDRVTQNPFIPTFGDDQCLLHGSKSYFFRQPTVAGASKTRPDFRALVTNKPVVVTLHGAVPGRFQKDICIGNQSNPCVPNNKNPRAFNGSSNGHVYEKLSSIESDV

3H-Prazosine binding = assay: 3H-Prazosine binding; details: rat brain membranes (minus cerebellum and medulla oblongata); 0.2 nM 3H-Prazosine; 30 minutes at room temperature, pH 7.4
Description: 3H-Prazosine binding Male Fullinsdorf albino rats weighing between 150-200 g were used. Membranes were prepared by homogenization of the whole brain minus cerebellum and medulla oblongata with a Plytron (10.000 rpm, 30 seconds), in 25 volumes of a cold Tris-HCl 50 mM, EDTA 10 mM, pH 7.1 buffer. The homogenate was centrifuged at 48.000 g for 10 minutes at 4° C. The pellet was resuspended using the Polytron in the same volume of buffer and the homogenate was incubated at 37° C. for 10 minutes. After centrifugation, the pellet was homogenized in the same buffer and frozen at -80° C. for at least 16 hours but not more than 10 days. For the binding assay the homogenate was thawed at 37° C., centrifuged and the pellet was washed three times as above in a Tris-HCl 5 mM, pH 7.4 cold buffer. The final pellet was resuspended in the same buffer and used at a final concentration of […]. 3H-Prazosine binding experiments were performed using a Tris-HCl 50 mM, pH 7.4 buffer. For displacement experiments 0.2 nM of 3H-Prazosine were used and non specific binding was measured using […] of Chlorpromazine. The incubation time was 30 minutes at room temperature and the assay was stopped by filtration on Whatman GF/B glass fiber filters (Unifilter-96, Canberra Packard S. A., Zurich, Switzerland). The filters were washed 5 times with cold buffer. The radioactivity on the filter was counted on a Packard Top-count microplate scintillation counter after addition of […] of microscint 40 (Canberra Packard S. A., Zurich, Switzerland). The effects of compounds were measured using a minimum of 8 concentrations and repeated at least once. The pooled normalized values were analyzed using a non-linear regression calculation program which provide IC50 with their relative upper and lower 95% confidence limits (RS1, BBN, USA).

[2] = target: T2, NR1C + NR2A (NMDAR1C-NMDAR2A) (Rattus norvegicus, UniProt Q00959); assay: Electrophysiology on recombinant NMDA receptors, NR1C + NR2A, Xenopus laevis oocytes; format: cell-based; details: read-out: Electrophysiology, % block by 10 μM, NR1C + NR2A
T2 construct: expressed in transfected cells; host or cells: Xenopus laevis oocytes injected with mRNA (1:1 mixture)
T2 sequence (Q00959 23-1464, other chains not shown): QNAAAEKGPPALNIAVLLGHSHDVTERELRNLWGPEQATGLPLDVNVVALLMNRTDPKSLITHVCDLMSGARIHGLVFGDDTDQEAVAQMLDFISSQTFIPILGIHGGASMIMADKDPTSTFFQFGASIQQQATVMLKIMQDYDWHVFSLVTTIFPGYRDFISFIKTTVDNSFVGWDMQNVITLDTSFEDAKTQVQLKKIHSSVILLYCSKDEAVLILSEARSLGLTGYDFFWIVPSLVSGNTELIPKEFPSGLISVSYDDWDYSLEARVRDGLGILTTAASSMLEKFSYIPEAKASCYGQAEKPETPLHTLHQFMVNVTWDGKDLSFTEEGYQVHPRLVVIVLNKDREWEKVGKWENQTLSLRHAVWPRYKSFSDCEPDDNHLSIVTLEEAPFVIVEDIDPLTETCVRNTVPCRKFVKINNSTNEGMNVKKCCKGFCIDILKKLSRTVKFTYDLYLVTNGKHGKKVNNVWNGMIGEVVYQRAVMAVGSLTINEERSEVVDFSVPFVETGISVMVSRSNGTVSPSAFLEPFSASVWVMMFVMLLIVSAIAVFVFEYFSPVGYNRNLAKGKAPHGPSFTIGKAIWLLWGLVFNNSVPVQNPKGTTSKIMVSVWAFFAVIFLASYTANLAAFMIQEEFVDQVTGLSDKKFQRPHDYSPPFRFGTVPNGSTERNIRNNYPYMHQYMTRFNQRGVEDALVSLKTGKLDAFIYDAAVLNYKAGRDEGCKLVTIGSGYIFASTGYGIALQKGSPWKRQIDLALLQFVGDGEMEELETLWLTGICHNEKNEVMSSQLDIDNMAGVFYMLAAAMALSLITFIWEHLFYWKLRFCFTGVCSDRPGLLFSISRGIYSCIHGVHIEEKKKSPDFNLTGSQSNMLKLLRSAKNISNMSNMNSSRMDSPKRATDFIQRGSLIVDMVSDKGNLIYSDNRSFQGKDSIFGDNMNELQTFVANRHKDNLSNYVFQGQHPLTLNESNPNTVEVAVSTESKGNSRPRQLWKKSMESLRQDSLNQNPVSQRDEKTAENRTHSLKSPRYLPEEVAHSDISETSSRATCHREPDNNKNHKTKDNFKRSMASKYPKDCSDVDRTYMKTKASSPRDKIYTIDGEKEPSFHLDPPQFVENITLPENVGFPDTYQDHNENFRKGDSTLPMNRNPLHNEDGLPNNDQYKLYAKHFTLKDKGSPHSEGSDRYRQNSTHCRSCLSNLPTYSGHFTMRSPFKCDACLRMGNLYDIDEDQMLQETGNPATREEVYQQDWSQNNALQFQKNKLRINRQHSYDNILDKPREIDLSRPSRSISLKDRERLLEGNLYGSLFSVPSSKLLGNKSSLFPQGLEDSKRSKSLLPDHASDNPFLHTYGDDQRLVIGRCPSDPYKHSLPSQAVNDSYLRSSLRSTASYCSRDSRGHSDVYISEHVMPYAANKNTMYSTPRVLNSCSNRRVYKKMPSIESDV
Description: (§1) Oocytes of South African frogs (Xenopus laevis) were used for expressing either a combination of the NMDAR1C and NMDAR2A subunits or the NMDAR1C and NMDAR2B subunits. Approximately 3 fmol of a 1:1 mixture of the respective MRNA species were injected into every oocyte. Four to five days later, the ion current through the NMDA receptor channels was measured in voltage clamp experiments (see Methfessel et al., 1986, Pflugers Arch. 407:577 for the methods of oocyte expression and voltage-clamping). The membrane potential was clamped to -80 mV and the receptors were activated by applying a modified Ringer,s solution containing the NMDA-receptor agonists L-asparatate (Asp) and glycine (Gly). Different agonist concentrations were chosen for either subunit combination to account for the different agonist sensitivities of the two types of receptors (70 mM Asp plus 2.5 mM Gly for NMDAR1C-NMDAR2A and 15 mM Asp plus 0.2 mM Gly for NMDAR1C-NMDAR2B). The agonists were applied for 15 s intervals once every 2.5 min by rapid superfusion of the oocyte with agonist containing solution and the amplitude of the agonist-evoked current was measured immediately before the end of each application. After a series of initial control applications, the antagonist to be tested was added to both, the basal Ringer,s and the agonist containing solution. The antagonist concentration applied to oocytes expressing the NR2A subunit was 10 mmol/l, whereas 0.1 mmol/l were applied to the NR2B expressing oocytes. Four to eight oocytes were tested for every compound and NMDA receptor subtype. Oocytes were exposed to the compounds for 5 to 30 min depending on the time needed for reaching an equilibrium block of the NMDA receptor current. For every oocyte the decrease of the current amplitude was expressed as a percentage of the control current measured before application of the compound.

[3] = target: T3, NR1C + NR2B (NMDAR1C-NMDAR2B) (Rattus norvegicus, UniProt P35439+Q00960); assay: Electrophysiology on recombinant NMDA receptors, NR1C + NR2B, Xenopus laevis oocytes; format: cell-based; details: read-out: Electrophysiology, % block by 0.1 μM, NR1C + NR2B
T3 construct: expressed in transfected cells; host or cells: Xenopus laevis oocytes injected with mRNA (1:1 mixture)
T3 sequence (Q00960 27-1482, other chains not shown): as the sequence (Q00960 27-1482, other chains not shown) above
Description: as §1

[4] = 10 μM compound, Xenopus laevis oocytes, -80 mV, mean of four to eight oocytes
[5] = 0.1 μM compound, Xenopus laevis oocytes, -80 mV, mean of four to eight oocytes

| IC50 [1] [nM] | IC50 (3H-Prazosine binding) [nM] | inhibition at 10 µM [2, 4] [%] | inhibition at 0.1 µM [3, 5] [%] | SMILES | inhibition at 10 µM [2] [%] | inhibition at 0.1 µM [3] [%] |
| --- | --- | --- | --- | --- | --- | --- |
| 10 | 800 |  |  | Cc1ccc(CC2(O)CCN(CCOC(=O)c3ccc(O)cc3)CC2)cc1 [O/34, 4-Hydroxy-benzoic acid 2-[4-hydroxy-4-(4-methyl-benzyl)-piperidin-1-yl]ethylester] |  |  |
| 40 | 30000 | 10 | 83 | Cc1ccc(CC2(O)CCN(CC(=O)Nc3ccc(O)cc3)CC2)cc1 [K/24, 2-[4-Hydroxy-4-(4-methyl-benzyl)-piperidin-1-yl]-N-(4-hydroxy-phenyl)-acetamide] |  |  |
| 60 | 7400 |  |  | Oc1ccc(CC(O)CN2CCC(O)(Cc3ccccc3)CC2)cc1 (racemic) [L/30, (RS)-4-Benzyl-1-[2-hydroxy-3-(4-hydroxy-phenyl)-propyl]-piperidin-4-ol] |  |  |
|  | 3500 | 31 | 88 | Cc1ccc(CC2(O)CCN(CCOc3ccc(O)cc3)CC2)cc1 [C/9, 1-[2-(4-Hydroxy-phenoxy)-ethyl]-4-(4-methyl-benzyl)-piperidin-4-ol] |  |  |
| 40 | 9200 | 19 | 81 | Oc1ccc(CC(O)CN2CCC(O)(Cc3ccc(Cl)cc3)CC2)cc1 (racemic) [N/32, (RS)-4-(4-Chloro-benzyl)-1-[2-hydroxy-3-(4-hydroxy-phenyl)-propyl]-piperidin-4-ol] |  |  |
| 20 | 6600 |  |  | Cc1ccc(CC2(O)CCN(CC(O)Cc3ccc(O)c(F)c3)CC2)cc1 (racemic) [W/94, (RS)-1-[3-(3-Fluoro-4-hydroxy-phenyl)-2-hydroxy-propyl]-4-(4-methyl-benzyl)-piperidin-4-ol hydrochloride] |  |  |
| 60 | 4000 |  |  | Oc1ccc(OC[C@@H](O)CN2CCC(O)(Cc3ccccc3)CC2)cc1 [B/5, (S)-4-Benzyl-1-[2-hydroxy-3-(4-hydroxy-phenoxy)-propyl]-piperidin-4-ol] |  |  |
| 40 | 3000 |  |  | Oc1ccc(OCCN2CCC(O)(Cc3ccc(F)cc3)CC2)cc1 [D/10, 4-(4-Fluoro-benzyl)-1-[2-(4-hydroxy-phenoxy)-ethyl]-piperidin-4-ol] |  |  |
| 20 | 9700 | 10 | 89 | Cc1ccc(CC2(O)CCN(CC(O)Cc3ccc(O)cc3)CC2)cc1 (racemic) [M/31, (RS)-1-[2-Hydroxy-3-(4-hydroxy-phenyl)-propyl]-4-(4-methyl-benzyl)-piperidin-4-ol] |  |  |

Second part, the compound before the results:

| SMILES | IC50 [1] [nM] | IC50 (3H-Prazosine binding) [nM] | inhibition at 10 µM [2, 4] [%] | inhibition at 0.1 µM [3, 5] [%] | inhibition at 10 µM [2] [%] | inhibition at 0.1 µM [3] [%] |
| --- | --- | --- | --- | --- | --- | --- |
| Cc1ccc(CC2(O)CCN(CCCOC(=O)c3ccc(O)cc3)CC2)cc1 [P/35, 4-Hydroxy-benzoic acid 3-[4-hydroxy-4-(4-methyl-benzyl)-piperidin-1-yl]-propylester] | 3 | 260 |  |  |  |  |
| Cc1ccc(CC2(O)CCN(CC(O)COc3ccc(O)cc3)CC2)cc1 (racemic) [A/1, (RS)-1-[2-Hydroxy-3-(4-hydroxy-phenoxy)-propyl]-4-(4-methyl-benzyl)-piperidin-4-ol hydrochloride] | 15 | 1500 |  |  | 29 | 96 |
| O=C(NCCCN1CCC(O)(Cc2ccccc2)CC1)c1ccc(O)cc1 [S/38, N-[3-(4-Benzyl-4-hydroxy-piperidin-1-yl)-propyl]-4-hydroxy-benzamide] | 16 | 7300 |  |  |  |  |
| O=C(CN1CCC(O)(Cc2ccccc2)CC1)Nc1ccc(O)cc1 [J/23, 2-(4-Benzyl-4-hydroxy-piperidin-1-yl)-N-(4-hydroxy-phenyl)-acetamide] | 70 | 20000 |  |  |  |  |
| O=C(NCCN1CCC(O)(Cc2ccccc2)CC1)c1ccc(O)cc1 [Q/36, N-[2-(4-Benzyl-4-hydroxy-piperidin-1-yl)-ethyl]-4-hydroxy-benzamide] | 10 | 5000 |  |  |  |  |
| Cc1ccc(CC2(O)CCN(CCOc3ccc(NS(C)(=O)=O)cc3)CC2)cc1 [E/11, N-(4-{2-[4-hydroxy-4-(4-methyl-benzyl)-piperidin-1-yl]-ethoxy}-phenyl)-methanesulfonamide hydrochloride] | 30 | 5000 |  |  | 27 | 91 |
| Cc1ccc(CC2(O)CCN(C(C)COc3ccc(O)cc3)CC2)cc1 (stereo not drawn) [I/22, 1-[2-(4-Hydroxy-phenoxy)-1-methyl-ethyl]-4-(4-methyl-benzyl)-piperidin-4-ol] | 40 | 2500 |  |  |  |  |
| Cc1ccc(CC2(O)CCN(C/C=C/c3ccc(O)cc3)CC2)cc1 [V/41, (E)-1-[3-(4-Hydroxy-phenyl)-allyl]-4-(4-methyl-benzyl)-piperidin-4-ol] | 8 | 3000 |  |  |  |  |
| CS(=O)(=O)Nc1ccc(OCCCN2CCC(O)(Cc3ccc(F)cc3)CC2)cc1 [H/14, N-(4-{3-[4-(4-Fluoro-benzyl)-4-hydroxy-piperidin-1-yl]-propoxy}-phenyl)-methanesulfonamide] | 40 | 1800 |  |  |  |  |
| Cc1ccc(CC2(O)CCN(CCCNC(=O)c3ccc(O)cc3)CC2)cc1 [T/39, 4-Hydroxy-N-[3-[4-hydroxy-4-(4-methyl-benzyl)-piperidin-1-yl]-propyl]-benzamide] | 9 | 2300 |  |  |  |  |
| Cc1ccc(CC2(O)CCN(CCNC(=O)c3ccc(O)cc3)CC2)cc1 [R/37, 4-Hydroxy-N-[2-[4-hydroxy-4-(4-methyl-benzyl)-piperidin-1-yl]-ethyl]-benzamide] | 6 | 5300 | 8 | 42 |  |  |
| CS(=O)(=O)Nc1ccc(OCCN2CCC(O)(Cc3ccc(Cl)cc3)CC2)cc1 [G/13, N-(4-{2-[4-(4-Chloro-benzyl)-4-hydroxy-piperidin-1-yl]-ethoxy}-phenyl)-methanesulfonamide] | 30 | 9000 |  |  |  |  |
| CS(=O)(=O)Nc1ccc(OCCN2CCC(O)(Cc3ccc(F)cc3)CC2)cc1 [F/12, N-(4-{2-[4-(4-fluoro-benzyl)-4-hydroxy-piperidin-1-yl]-ethoxy}-phenyl)-methanesulfonamide] | 60 | 6000 |  |  |  |  |
